These results are taken from patent US20220030882A1, “Composition and Method to Remove Parasites From Fish and to Prevent or Treat Infestation or Infection of Parasites on Fish” (priority 2018, published 2022).

One data set relates to salmon lice. Set-up: species or system Lepeophteirus salmonis. To be noted: in vivo.
For data set [1] the following is noted: cited from earlier work.

Consider `COc1cc(CNC(=O)CCCC/C=C/C(C)C)ccc1O` [capsaicin], for which, in the data set on salmon lice, the “effect on the lice” value was “has an effect”; the “sum of the effects on lice of each agent on its own versus the combination of capsaicin and acetic acid” value was “considerably lower”. Moreover, the “solubility in ethanol and other hydrophobic solvents” value in data set [1] (pure capsaicin) is given as “soluble”. The solubility in water entry in data set [1] (water) is listed as “not soluble”.
